These are literature values, as cited in paper PMC8091910 (Proteins, 2019).

Data set [1] relates to pancreatic cancer cell (RWP1). The following applies: human peptide library screen.
Data set [2] relates to EME1.
Data set [3] concerns MUS81–EME1 complex.
Data set [4] concerns cancer cell lines.

For “RTLSQLYCSYGPLT [C-terminal MUS81 peptide]”, in data set [1], the “reduction of cell viability” value is reported as “significantly reduced cell viability”. Further, the “binding to EME1” value in data set [2] is recorded as “binds to EME1”. Further, in data set [3], the “disruption / inhibition of MUS81–EME1 complex” value is “disrupting the MUS81–EME1 complex”. Moreover, the “reduction of cell viability in cancer cell lines” value in data set [4] is reported as “reducing cell viability in cancer cell lines”.
